# Data from patent publication US7560436B2, “Methods of treating gastrointestinal inflammation” (The Regents of the University of California, priority 2005, dated 2009).
# Tests used:
# [1] = tested on: bone marrow-derived myeloid dendritic cells (MDC) from RAG−/− mice; test: DNA-PK inhibitor on CpG-ODN-induced cytokine production in MDC; assay type: cell-based, mouse; conditions: various concentrations of NU7026, with or without CpG-ODN
# Protocol: Since deletion of the kinase domain of DNA-PKcs is responsible for the SCID phenotype, the role of DNA-PK in TLR9-mediated type-I IFN induction was investigated. To do so, bone marrow-derived myeloid dendritic cells (MDC) from RAG^−/− mice were incubated with various concentrations of NU7026, a DNA-PK inhibitor (Calbiochem, San Diego, Calif.), with or without CpG-ODN. […] In contrast, the activation of NF-κB, MAPK, IRF-3 and IRF-7 were similar in these cells (FIG. 2B), indicating a specific signaling blockade downstream to TLR9 in SCID but not in RAG^−/− BM-MDC.
# DSS-induced colitis = DSS-induced colitis in mice (disease activity index, colonic MPO activity, histological score, mortality); assay type: in vivo, mouse; conditions: for DAI (disease activity index) / HS (histological score) / MPO (U/g): 1.5% DSS
# Source text: In a previous study the concentration of DSS was identified that was required to induce a similar severity of colitis in the different mouse strains used in this study (Rachmilewitz et al. (2004) Gastroenterology 126:520-528). Mice on the B6 background were given 1.5% (w/v) DSS, mice on the 129/SvEv background were given 4% DSS and mice on the Balb/c background were given 3.5% DSS dissolved in sterile, distilled water ad libitum for 7 days (Rachmilewitz et al. (2004) supra). […] The disease activity index (DAI; the combined score of weight loss and bleeding) was determined as described (Rachmilewitz et al. (2002) Gastroenterology 122:1428-144110; and Rachmilewitz et al. (2004) supra). Briefly, scores are defined as follows: Loss in body weight: 0=no loss; 1=5% to 10%; 2=10% to 15%; 3=15% to 20%; 4=over 20%. Hemoccult: 0=no blood; 2=positive; 4=gross blood.
# The colon tissues were longitudinally opened and a 50 mg portion was homogenized in hexadecyltrimethyl-ammonium bromide (0.5%) in 50 mmol/L phosphate buffer, pH6.0. The homogenate was sonicated for 10 seconds, freeze-thawed 3 times, and centrifuged for 15 minutes. An aliquot of the supernatant was taken for determination of enzyme activity as described (Rachmilewitz et al. (2002) supra; and Rachmilewitz et al. (2004) supra).
# After 7 days of DSS administration, mice were killed and the entire colon was excised, longitudinally opened, rolled onto a wooden stick, fixed with Bouin's Solution (Sigma, St. Louis, Mo.), and embedded in paraffin. Tissue sections (5 μm) were prepared, deparaffinized, and stained with hematoxylin and eosin. Histological scoring was performed in a blinded fashion. Colonic epithelial damage was scored as follows: 0=normal; 1=hyper-proliferation, irregular crypts, and goblet cell loss; 2=mild to moderate crypt loss (10-50%); 3=severe crypt loss (50-90%); 4=complete crypt loss, surface epithelium intact; 5=small to medium sized ulcer (<10 crypt widths); 6=large ulcer (≧10 crypt widths). Infiltration with inflammatory cells was scored separately for mucosa (0=normal, 1=mild, 2=modest, 3=severe), submucosa (0=normal, 1=mild to modest, 2=severe), and muscle/serosa (0=normal, 1=moderate to severe). Scores for epithelial damage and inflammatory cell infiltration were added, resulting in a total scoring range of 0-12.
# [2] = RAG1−/− mice (B6), ODN 10 μg/animal s.c. once 2 h prior, day 7, mean±SEM
# [3] = SCID mice (B6), ODN 10 μg/animal s.c. once 2 h prior, day 7, mean±SEM
# [4] = Table 6: SCID mice (B6), 1000 U recombinant mIFN-β i.p. prior to and on days 2, 4, 6, day 7, mean±SEM
compound,measurement,setting,value
O=c1cc(N2CCOCC2)oc2c1ccc1ccccc12 [NU7026],IFN-α/β production induced by CpG-ODN,[1],selectively inhibited IFN-α/β
same,IL-12 (p40) production induced by CpG-ODN,[1],without affecting IL-12 (p40) production
"CpG-ODN-2: phosphodiester and phosphothioate-modified class A CpG-ODN, 5′-Ggtgcatcgatgca GGGGGg-3′; SEQ ID NO:05 (GGTGCATCGATGCAGGGGGG; DNA, linkages s1 o13 s5 (s phosphorothioate, o phosphodiester), methylation of C not given here)",DAI (disease activity index),DSS-induced colitis; [2],1.9 ± 0.7^A
same,HS (histological score),DSS-induced colitis; [2],5.0 ± 0.8^A
same,MPO (U/g),DSS-induced colitis; [2],0.9 ± 0.2^A U/g
same,DAI (disease activity index),DSS-induced colitis; [3],6.5 ± 0.6
same,HS (histological score),DSS-induced colitis; [3],9.8 ± 0.3
same,MPO (U/g),DSS-induced colitis; [3],1.3 ± 0.1 U/g
IFN-β: recombinant murine IFN-β from Chemicon International,disease activity and histological scores (in words),"DSS-induced colitis; DSS-treated SCID mice, recombinant mIFN-β",decreased the disease activity and the histological scores
same,DAI (disease activity index),DSS-induced colitis; [4],4.6 ± 0.9^A
same,HS (histological score),DSS-induced colitis; [4],6.8 ± 1.2^A
same,MPO (U/g),DSS-induced colitis; [4],1.2 ± 0.1 U/g
